Test results as given in patent US5391540A, “Substituted pyridine compounds” (Rohm and Haas Company, priority 1993, dated 1995).

Tests used:
Experiment in all cases: Pre-emergent herbicidal activity (Table A)
Assay type in all cases: in vivo
Seedling Johnsongrass = conditions: Sorghum halepense, pre-emergence, Sejg, 11.2 kg/ha, 10-14 days, read-out: herbicidal rating (% inhibition)
Protocol: (§1) Tables A and B summarize results of tests conducted to determine the pre-emergent herbicidal activity of the compounds of this invention. The herbicidal ratings used in Tables A and B were assigned according to a scale based on the percent inhibition of each plant species. The herbicide rating symbols in Tables A and B are defined as follows: […]
(§2) One set of pre-emergent tests was conducted as follows:
(§3) Topsoil was placed in a pan and compacted to a depth of 0.95 to 1.27 cm. from the top of the pan. A predetermined number of seeds of each of several monocotyledonous and dicotyledonous annual plant species and/or vegetative propagules of various perennial plant species were placed on top of the soil. The soil required to level fill a pan after seeding or adding vegetative propagules was weighed into another pan. A known amount of the test compound dissolved or suspended in an organic solvent or water and applied in acetone or water as a carrier was thoroughly mixed with this cover soil, and the herbicide/soil mixture was used as a cover layer for the previously prepared pan. In Table A below the amounts of active ingredient were all equivalent to an application rate of 11.2 kilograms/hectare (kg/ha). After treatment, the pans were moved to a greenhouse bench where they were watered as needed to give adequate moisture for germination and growth.
(§4) Approximately 10-14 days (usually 11 days) after planting and treating, the plants were observed and the results recorded.
(§5) The plant species usually regarded as weeds which were utilized in one set of pre-emergent activity tests, the data for which are shown in Table A, are identified by letter headings printed diagonally above the columns according to the following legend: […]

Indian Mustard = conditions: Brassica juncea, pre-emergence, Inmu, 11.2 kg/ha, 10-14 days, read-out: herbicidal rating (% inhibition)
Protocol: as §1, §2, §3, §4, §5

Wild Buckwheat = conditions: Fallopia convolvulus, pre-emergence, Wibw, 11.2 kg/ha, 10-14 days, read-out: herbicidal rating (% inhibition)
Protocol: as §1, §2, §3, §4, §5

Annual Bluegrass = conditions: pre-emergence, Anbg, 11.2 kg/ha, 10-14 days, read-out: herbicidal rating (% inhibition)
Protocol: as §1, §2, §3, §4, §5

Morningglory = conditions: Ipomoea, pre-emergence, Mogl, 11.2 kg/ha, 10-14 days, read-out: herbicidal rating (% inhibition)
How it was run: (§6)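 Seeds or perennial propagules set on compacted topsoil, then covered with soil mixed with a known amount of test compound applied in acetone or water carrier. Ratings assigned on a scale based on percent inhibition of each species.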

Downy Brome = conditions: Bromus tectorum, pre-emergence, Dobr, 11.2 kg/ha, 10-14 days, read-out: herbicidal rating (% inhibition)
How it was run: as §6

Yellow Nutsedge = conditions: Cyperus, pre-emergence, Yens, 11.2 kg/ha, 10-14 days, read-out: herbicidal rating (% inhibition)
How it was run: as §6

Cocklebur = conditions: Xanthium strumarium, pre-emergence, Cobu, 11.2 kg/ha, 10-14 days, read-out: herbicidal rating (% inhibition)
How it was run: as §6

Barnyardgrass = conditions: Echinochloa crus-galli, pre-emergence, Bygr, 11.2 kg/ha, 10-14 days, read-out: herbicidal rating (% inhibition)
How it was run: as §6

Velvetleaf = conditions: Abutilon theophrasti, pre-emergence, Vele, 11.2 kg/ha, 10-14 days, read-out: herbicidal rating (% inhibition)
How it was run: as §6

Pennsylvania Smartweed = conditions: pre-emergence, Pesw, 11.2 kg/ha, 10-14 days, read-out: herbicidal rating (% inhibition)
How it was run: as §6

Quackgrass = conditions: pre-emergence, Rhqg, 11.2 kg/ha, 10-14 days, read-out: herbicidal rating (% inhibition)
How it was run: as §6

Common Lambsquarters = conditions: Chenopodium album, pre-emergence, Colq, 11.2 kg/ha, 10-14 days, read-out: herbicidal rating (% inhibition)
How it was run: as §6

Rhizome Johnsongrass = conditions: Sorghum halepense, pre-emergence, Rhjg, 11.2 kg/ha, 10-14 days, read-out: herbicidal rating (% inhibition)
How it was run: as §6

Canada thistle = conditions: Cirsium arvense, pre-emergence, Cath, 11.2 kg/ha, 10-14 days, read-out: herbicidal rating (% inhibition)
How it was run: as §6

| Structure (SMILES) | inhibition at 11200 g/ha (Seedling Johnsongrass) | inhibition at 11200 g/ha (Indian Mustard) | inhibition at 11200 g/ha (Wild Buckwheat) | inhibition at 11200 g/ha (Annual Bluegrass) | inhibition at 11200 g/ha (Morningglory) | inhibition at 11200 g/ha (Downy Brome) | inhibition at 11200 g/ha (Yellow Nutsedge) | inhibition at 11200 g/ha (Cocklebur) | inhibition at 11200 g/ha (Barnyardgrass) | inhibition at 11200 g/ha (Velvetleaf) | inhibition at 11200 g/ha (Pennsylvania Smartweed) | inhibition at 11200 g/ha (Quackgrass) | inhibition at 11200 g/ha (Common Lambsquarters) | inhibition at 11200 g/ha (Rhizome Johnsongrass) | inhibition at 11200 g/ha (Canada thistle) |
| --- | --- | --- | --- | --- | --- | --- | --- | --- | --- | --- | --- | --- | --- | --- | --- |
| COC(=O)c1c(OC)nc(C(F)(F)F)c(C2OCCCO2)c1CC(C)C [Compound 110, 3-pyridinecarboxylic acid, 5-(1,3-dioxan-2-yl)-2-methoxy-4-(2-methylpropyl)-6-(trifluoromethyl)-, methyl ester] | 75 to 100% | 75 to 100% | 75 to 100% | 75 to 100% | 75 to 100% | 75 to 100% | 50 to 74% | 75 to 100% | 75 to 100% | 75 to 100% |  |  |  |  |  |
| COC(=O)c1c(OC)nc(C(F)(F)F)c(C2=NCCCO2)c1CC(C)C [Compound 99] | 75 to 100% | 75 to 100% | 25 to 49% | 75 to 100% | 50 to 74% | 75 to 100% | 0 to 24% | 0 to 24% | 75 to 100% | 75 to 100% |  |  |  |  |  |
| COC(=O)c1c(OC)nc(C(F)(F)F)c(C#N)c1CC(C)C [Compound 106, 3-pyridinecarboxylic acid, 5-cyano-2-methoxy-4-(2-methylpropyl)-6-(trifluoromethyl)-, methyl ester] | 0 to 24% | 75 to 100% | 75 to 100% | 75 to 100% | 50 to 74% | 75 to 100% | 0 to 24% | 0 to 24% | 75 to 100% | 0 to 24% |  |  |  |  |  |
| COC(=O)c1c(OC)nc(C(F)(F)F)c(C(=O)n2cc([N+](=O)[O-])cn2)c1CC(C)C [Compound 101, 3-pyridinecarboxylic acid, 2-methoxy-4-(2-methylpropyl)-5-[(4-nitro-1H-pyrazo1-1-yl)carbonyl]-6-(trifluoromethyl)-, methyl ester] | 75 to 100% | 75 to 100% | 75 to 100% | 75 to 100% | 50 to 74% | 50 to 74% | 0 to 24% | 25 to 49% | 75 to 100% | 50 to 74% |  |  |  |  |  |
| COC(=O)c1c(OC)nc(C(F)(F)F)c(C2OCCO2)c1CC(C)C [Compound 109, 3-pyridinecarboxylic acid, 5-(1,3-dioxolan-2-yl)-2-methoxy-4-(2-methylpropyl)-6-(trifluoromethyl)-, methyl ester] | 75 to 100% | 75 to 100% | 75 to 100% | 75 to 100% | 75 to 100% | 75 to 100% | 75 to 100% | 75 to 100% | 75 to 100% | 75 to 100% |  |  |  |  |  |
| COC(=O)c1c(OC)nc(C(F)(F)F)c(-c2nnco2)c1CC(C)C [Compound 125, 3-pyridinecarboxylic acid, 2-methoxy-4-(2-methylpropyl)-5-(1,3,4-oxadiazo1-2-yl)-6-(trifluoromethyl)-, methyl ester] | 75 to 100% | 75 to 100% | 75 to 100% | 75 to 100% | 75 to 100% | 75 to 100% | 0 to 24% | 0 to 24% | 75 to 100% | 75 to 100% |  |  |  |  |  |
| COC(=O)c1c(OC)nc(C(F)(F)F)c(C(=O)n2cc(NC(C)=O)cn2)c1CC(C)C [Compound 107, 3-pyridinecarboxylic acid, 5-[[4-(acetylamino)-1H-pyrazol-1-yl]carbonyl]-2-methoxy-4-(2-methylpropyl)-6-(trifluoromethyl)-, methyl ester] | 75 to 100% | 75 to 100% | 50 to 74% | 75 to 100% | 75 to 100% | 0 to 24% | 0 to 24% | 0 to 24% | 75 to 100% | 75 to 100% |  |  |  |  |  |
| COC(=O)c1c(OC)nc(C(F)(F)F)c(NC(=O)CCCBr)c1CC(C)C [Compound 120, 3-pyridinecarboxylic acid, 5-[(4-bromo-1-oxobutyl)amino]-2-methoxy-4-(2-methylpropyl)-6-(trifluoromethyl)-, methyl ester] | 75 to 100% |  |  | 75 to 100% | 75 to 100% | 75 to 100% | 50 to 74% | 75 to 100% | 75 to 100% | 75 to 100% |  |  |  |  |  |
| COC(=O)c1c(OC)nc(C(F)(F)F)c(C(N)=O)c1CC(C)C [Compound 105, 3-pyridinecarboxylic acid, 5-(aminocarbonyl)-2-methoxy-4-(2-methylpropyl)-6-(trifluoromethyl)-, methyl ester] | 75 to 100% | 0 to 24% | 25 to 49% | 75 to 100% | 0 to 24% | 0 to 24% | 0 to 24% | 0 to 24% | 75 to 100% | 0 to 24% |  |  |  |  |  |
| CNC(=O)c1c(C(F)(F)F)nc(OC)c(C(=O)OC)c1CC(C)C [Compound 37, 3-pyridinecarboxylic acid, 2-methoxy-5-[(methylamino)carbonyl]-4-(2-methylpropyl)-6-(trifluoromethyl)-, methyl ester] |  |  |  |  | 0 to 24% | 0 to 24% | 0 to 24% | 0 to 24% | 0 to 24% | 0 to 24% | 0 to 24% | 0 to 24% | 75 to 100% | 0 to 24% | 0 to 24% |
| COC(=O)c1c(OC)nc(C(F)(F)F)c(C(=O)n2cncn2)c1CC(C)C [Compound 60, 3-pyridinecarboxylic acid, 2-methoxy-4-(2-methylpropyl)-5-(1H-1,2,4-triazo1-1-ylcarbonyl)-6-(trifluoromethyl)-, methyl ester] |  |  |  |  | 75 to 100% | 75 to 100% | 0 to 24% | 25 to 49% | 75 to 100% | 75 to 100% | 75 to 100% | 75 to 100% | 75 to 100% | 75 to 100% | 75 to 100% |
| CNC(=O)c1c(OC)nc(C(F)(F)F)c(C(=O)OC)c1CC(C)C [Compound 21, 3-pyridinecarboxylic acid, 6-methoxy-5-[(methylamino)carbonyl]-4-(2-methylpropyl)-2-(trifluoromethyl)-, methyl ester] |  |  |  |  | 0 to 24% | 75 to 100% | 0 to 24% | 0 to 24% | 75 to 100% | 0 to 24% | 0 to 24% | 75 to 100% | 75 to 100% | 0 to 24% | 0 to 24% |
